Laboratory results as given in the NIST ThermoML archive (doi:10.1007/s10765-005-8591-6).

Test: xn = mol fraction of the nth substance listed
Details: Fluid (supercritical or subcritical phases), Constant-volume piezometry

FC(F)C(F)(F)F [pentafluoroethane] + FCF
Details	mass density [kg/m3]
258.15 K, 2177 kPa, x2 = 0.3004	1342.88
258.16 K, 1554.4 kPa, x2 = 0.4995	1294.18
258.16 K, 4595.6 kPa, x2 = 0	1403.78
259.14 K, 2658.3 kPa, x2 = 0.6995	1234.39
259.15 K, 2403.7 kPa, x2 = 0.4995	1294.07
259.15 K, 2913.1 kPa, x2 = 0.3004	1342.77
261.15 K, 3061.1 kPa, x2 = 0.8997	1151.87
261.15 K, 4118.3 kPa, x2 = 0.4995	1293.85
261.15 K, 4474.9 kPa, x2 = 0.3004	1342.56
261.15 K, 4516.2 kPa, x2 = 0.6995	1234.17
261.15 K, 6579.8 kPa, x2 = 0	1403.47
262.14 K, 4056 kPa, x2 = 0.8997	1151.77
262.14 K, 7284.6 kPa, x2 = 0	1403.36
263.15 K, 5058.3 kPa, x2 = 0.8997	1151.67
263.15 K, 5848.5 kPa, x2 = 0.4995	1293.64
263.15 K, 6106.3 kPa, x2 = 0.3004	1342.34
263.15 K, 6362.9 kPa, x2 = 0.6995	1233.97
264.15 K, 3235.2 kPa, x2 = 0.098	1362.36
264.15 K, 6053.5 kPa, x2 = 0.8997	1151.57
264.15 K, 7288.1 kPa, x2 = 0.6995	1233.88
265.15 K, 7050.9 kPa, x2 = 0.8997	1151.47
265.15 K, 7767 kPa, x2 = 0.3004	1342.13
265.15 K, 8213.6 kPa, x2 = 0.6995	1233.78
265.17 K, 7585.9 kPa, x2 = 0.4995	1293.43
267.15 K, 9040.9 kPa, x2 = 0.8997	1151.28
267.15 K, 9274.4 kPa, x2 = 0.4995	1293.23
267.15 K, 10051 kPa, x2 = 0.6995	1233.58
267.16 K, 5301.3 kPa, x2 = 0.098	1362.04
267.16 K, 9382.9 kPa, x2 = 0.3004	1341.92
267.16 K, 10809 kPa, x2 = 0	1402.84
268.15 K, 10032 kPa, x2 = 0.8997	1151.19
268.2 K, 10152 kPa, x2 = 0.4995	1293.13
269.14 K, 10950 kPa, x2 = 0.4995	1293.04
269.15 K, 10983 kPa, x2 = 0.3004	1341.71
269.15 K, 11894 kPa, x2 = 0.6995	1233.38
269.16 K, 11031 kPa, x2 = 0.8997	1151.09
270.15 K, 7414.4 kPa, x2 = 0.098	1361.73
270.19 K, 13003 kPa, x2 = 0	1402.53
271.13 K, 12647 kPa, x2 = 0.4995	1292.84
271.15 K, 13008 kPa, x2 = 0.8997	1150.92
271.16 K, 13740 kPa, x2 = 0.6995	1233.2
273.08 K, 14311 kPa, x2 = 0.4995	1292.65
273.15 K, 9532.7 kPa, x2 = 0.098	1361.42
273.15 K, 14255 kPa, x2 = 0.3004	1341.32
273.15 K, 14990 kPa, x2 = 0.8997	1150.74
273.15 K, 15076 kPa, x2 = 0	1402.23
273.16 K, 15579 kPa, x2 = 0.6995	1233.01
274.14 K, 15969 kPa, x2 = 0.8997	1150.66
274.16 K, 16499 kPa, x2 = 0.6995	1232.92
275.13 K, 16066 kPa, x2 = 0.4995	1292.46
275.15 K, 16572 kPa, x2 = 0	1402.04
282.15 K, 15978 kPa, x2 = 0.098	1360.53
313.13 K, 2217.5 kPa, x2 = 0.3003	1050.39
313.15 K, 2820.6 kPa, x2 = 0.1	1097.54
318.14 K, 2959 kPa, x2 = 0.8992	900.95
318.15 K, 2921.8 kPa, x2 = 0.6998	949.66
318.15 K, 4528.5 kPa, x2 = 0.1	1097.17
318.18 K, 3901.3 kPa, x2 = 0.3003	1050.03
318.21 K, 3341.8 kPa, x2 = 0.4993	1000.3
323.13 K, 5212.3 kPa, x2 = 0.8992	900.63
323.14 K, 4867 kPa, x2 = 0.6998	949.34
323.15 K, 5129.3 kPa, x2 = 0.4993	999.96
323.16 K, 5645.9 kPa, x2 = 0.3003	1049.68
323.16 K, 6252.9 kPa, x2 = 0.1	1096.79
328.14 K, 6839.9 kPa, x2 = 0.6998	949.01
328.15 K, 7408.9 kPa, x2 = 0.3003	1049.33
328.15 K, 7986 kPa, x2 = 0.1	1096.43
328.16 K, 6969.7 kPa, x2 = 0.4993	999.62
328.16 K, 7509.2 kPa, x2 = 0.8992	900.31
333.13 K, 8834 kPa, x2 = 0.6998	948.69
333.13 K, 9793.4 kPa, x2 = 0.8992	900.01
333.14 K, 9188.4 kPa, x2 = 0.3003	1048.98
333.15 K, 8814.5 kPa, x2 = 0.4993	999.29
333.17 K, 9741.9 kPa, x2 = 0.1	1096.06
338.12 K, 12100 kPa, x2 = 0.8992	899.7
338.13 K, 10843 kPa, x2 = 0.6998	948.37
338.13 K, 10979 kPa, x2 = 0.3003	1048.63
338.14 K, 11489 kPa, x2 = 0.1	1095.7
338.19 K, 10690 kPa, x2 = 0.4993	998.95
343.12 K, 12860 kPa, x2 = 0.6998	948.05
343.12 K, 14419 kPa, x2 = 0.8992	899.4
343.13 K, 12772 kPa, x2 = 0.3003	1048.29
343.13 K, 13247 kPa, x2 = 0.1	1095.35
343.18 K, 12550 kPa, x2 = 0.4993	998.62
348.12 K, 14887 kPa, x2 = 0.6998	947.74
348.13 K, 16746 kPa, x2 = 0.8992	899.1
348.16 K, 14423 kPa, x2 = 0.4993	998.3
348.16 K, 15022 kPa, x2 = 0.1	1094.99
348.17 K, 14592 kPa, x2 = 0.3003	1047.95
353.11 K, 16917 kPa, x2 = 0.6998	947.43
353.13 K, 16290 kPa, x2 = 0.4993	997.98
353.14 K, 16386 kPa, x2 = 0.3003	1047.61
353.14 K, 16782 kPa, x2 = 0.1	1094.64
354.13 K, 16744 kPa, x2 = 0.3003	1047.54
354.15 K, 16672 kPa, x2 = 0.4993	997.91
